Test results: paper PMC7940618, “Specific inhibition of the Survivin–CRM1 interaction by peptide-modified molecular tweezers” (Nature Communications, 2021)
Where “and” joins values, the source holds several entries; their conditions need not be identical. Equal entries are not always repeated. Peptide text beside a SMILES is read from it.

Tests used:
Survivin120 = biological target: T1, Survivin120 (Homo sapiens, UniProt O15392); assay: ITC titration of tweezers with Survivin120 wildtype; format: binding; conditions: ITC, Survivin120 WT; for Kd: PBS pH 7.4, 25 °C, one set of sites model, mean ± SEM of fit
T1 construct: the only published NMR structure originated from a truncated Survivin (aa 1-120) with improved solubility; GST with PreScission site (N); made in house; host or cells: Escherichia coli soluBL21
T1 sequence (O15392 1-120): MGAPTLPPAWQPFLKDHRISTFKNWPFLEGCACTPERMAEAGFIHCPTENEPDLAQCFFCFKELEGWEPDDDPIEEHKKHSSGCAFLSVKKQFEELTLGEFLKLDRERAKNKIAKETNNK
Procedure: The interaction between the tweezers and Survivin was studied by isothermal titration calorimetry (ITC) and NMR spectroscopy. So far, the only published NMR structure originated from a truncated Survivin (aa 1-120) with improved solubility. […] Since the truncated construct still contains all relevant parts of the protein and gives excellent NMR spectra (SI5), we chose it for all our in vitro experiments and denote it as Survivin120 in the following results.
ITC was performed with a MicroCal iTC200 from Malvern Panalytical in PBS, pH 7.4 at 25 °C with molecular tweezers in the cell and Survivin120 in the titration syringe. The protein was dialyzed overnight at 4 °C against the PBS buffer. Ligands were dissolved in the respective dialysis buffer. Then, 300 µM TW were titrated with 300 µM Survivin120 WT or 321 µM Survivin120 K90/103T. Then, 100 µM TW-ELTL, TW-ELTLGEFL, or TW-LFEEGLLT was titrated with 1.2 mM Survivin120 WT or 2.5 mM Survivin120 K90/103T. For reverse titrations, either 33.3 or 34.4 µM Survivin120 in the cell was titrated with 5 mM TW or TW-ELTL in the syringe, respectively. All titrations were performed in PBS, pH 7.4 at 25 °C. Then, 1.5 μL injections were used with 120 s spacing time between injections. The injection rate was set to 0.5 µL/s and the reference power was 5 µcal/s. ITC thermograms were fitted to a one set of sites model with the software Origin (v7.0552) provided with the instrument. Heat of dilution was subtracted as constant from each data point.
ITC thermograms were fitted to a one set of sites model with the software Origin provided with the instrument. Heat of dilution was subtracted as constant from each data point. From three independent experiments (n = 3), one representative example was depicted, and thermodynamic data were derived thereof. For pull-down experiments, only the representative quantification of the depicted western blot is shown. […] Fluorescence anisotropy graphs were generated with GraphPad Prism 5.0. Depicted error bars represent the standard deviation of three independent titrations.

[1] = biological target: T2, Survivin120/CRM1_1-1062VLV430AAA complex (Homo sapiens, UniProt O15392); assay: Fluorescence anisotropy titration of Atto488-Survivin120/CRM1 complex with tweezers; format: binding; conditions: for Anisotropy: Data 1; for IC50: fluorescence anisotropy, Atto488-Survivin120:CRM1 mutant 1:5, n = 1, read-out: IC50, disruption of Survivin–CRM1 complex
T2 construct: the only published NMR structure originated from a truncated Survivin (aa 1-120) with improved solubility; GST with PreScission site (N); made in house; host or cells: E. coli BL21-CodonPlus-RIL (CRM1 mutant); E. coli soluBL21 (Survivin120)
T2 sequence (O15392 1-120, one chain of several): as the sequence (O15392 1-120) above
Procedure: We also used fluorescence anisotropy experiments to investigate the ability of the tweezer molecules to disrupt the Survivin–CRM1 complex. Atto488-labeled Survivin120 was preincubated with the CRM1_1-1062VLV430AAA mutant[40] that binds Survivin irrespective of RanGTP and titrated with tweezers.
Fluorescence anisotropy was measured with a Jasco Spectrofluorometer FP-8300 in PBS buffer, pH 7.4, at 25 °C and data were collected with the software Spectra Manager™.
For the quantitative analysis of the Survivin120/CRM1 complex, Survivin120 was labeled with ATTO488-maleimide from Jenabioscience according to the manufacturer’s instructions and mixed with CRM1_1-1062VLV430AAA in a ratio of 1:5. The protein complex was then titrated with tweezers in several steps until a final concentration of approximately 180 μM tweezers was reached. Data were transformed to logarithmic scale and IC50 was fitted using the equation in GraphPad Prism 8:2 y=Amin+Amax−Amin/1+10^x−logIC50 where Amax is the anisotropy in the absence of tweezer, Amin is the anisotropy at the end titration, and x is the concentration of tweezer. Amax was constrained for each data set, whereas Amin and IC50 were fitted.

[2] = Concentration of Tweezer 8.26446
[3] = Concentration of Tweezer 16.39344
[4] = Concentration of Tweezer 24.39024
[5] = Concentration of Tweezer 32.25806
[6] = Concentration of Tweezer 40.00000
[7] = Concentration of Tweezer 55.11811
[8] = Concentration of Tweezer 83.96947
[9] = Concentration of Tweezer 136.69060
[10] = Concentration of Tweezer 183.67350

Row | SMILES | -TΔS (Survivin120) | ΔG (Survivin120) | ΔH (Survivin120) | Kd (Survivin120) | Anisotropy [1, 2] | Anisotropy [1, 3] | Anisotropy [1, 4] | Anisotropy [1, 5] | Anisotropy [1, 6] | Anisotropy [1, 7] | Anisotropy [1, 8] | Anisotropy [1, 9] | Anisotropy [1, 10] | Anisotropy ([1]; Concentration of Tweezer 225.80650) | IC50 [1]
1 | O=P(O)(O)Oc1c2c(c(OP(=O)(O)O)c3c1C1CC3c3cc4c(cc31)C1CC4c3ccccc31)C1CC2c2cc3c(cc21)C1CC3c2ccccc21 [TW, reference compound] | -4.7 kcal | -6.0 kcal | -1.3 kcal | 38 µM | 0.0578 | 0.0573 | 0.0568 | 0.0561 | 0.0556 | 0.0551 | 0.0525 | 0.0507 | 0.0512 | 0.0517 | 53 µM and 53.4 µM
2 | CC(C)C[C@H](NC(=O)[C@H](Cc1ccccc1)NC(=O)[C@H](CCC(=O)O)NC(=O)CNC(=O)[C@H](CC(C)C)NC(=O)[C@@H](NC(=O)[C@H](CC(C)C)NC(=O)[C@H](CCC(=O)O)NC(=O)Cn1cc(CCOP(=O)(O)Oc2c3c(c(OP(=O)(O)O)c4c2C2CC4c4cc5c(cc42)C2CC5c4ccccc42)C2CC3c3cc4c(cc32)C2CC4c3ccccc32)nn1)[C@@H](C)O)C(=O)O [TW-ELTLGEFL] (HELM PEPTIDE1{[O=C(Cn1cc(CCOP(=O)(O)Oc2c3c(c(OP(=O)(O)O)c4c2C2CC4c4cc5c(cc42)C2CC5c4ccccc42)C2CC3c3cc4c(cc32)C2CC4c3ccccc32)nn1)[*:2]].E.L.T.L.G.E.F.L}$$$$V2.0) |  |  |  | 19 µM |  |  |  |  |  |  |  |  |  |  | 12 µM and 11.6 µM
3 | CC(C)C[C@H](NC(=O)[C@@H](NC(=O)[C@H](CC(C)C)NC(=O)[C@H](CCC(=O)O)NC(=O)Cn1cc(CCOP(=O)(O)Oc2c3c(c(OP(=O)(O)O)c4c2[C@H]2C[C@@H]4c4cc5c(cc42)[C@H]2C[C@@H]5c4ccccc42)[C@H]2C[C@@H]3c3cc4c(cc32)[C@H]2C[C@@H]4c3ccccc32)nn1)[C@@H](C)O)C(=O)O [TW-ELTL] | -3.8 kcal | -6.3 kcal | -2.5 kcal | 24 µM | 0.0572 | 0.0560 | 0.0559 | 0.0551 | 0.0548 | 0.0528 | 0.0510 | 0.0501 | 0.0506 |  | 39 µM
